No end group written: not given here.
test: Relative potency of penetrating peptides as tested in mice (Example 3); format: in vivo; details: IBW-002 = 100
Excerpt: Relative Potency of Penetrating Peptides as Tested in Mice.

Substance | Relative potency (%)
AcMNYYDITLALAGICQSARLVQQLAGGGKGGKNH2 (Ac-MNYYDITLALAGICQSARLVQQLAGGGKGGK-NH2) [IBW-002V1] | 73%
AcMYYDITLALAGICQSARLVQQLAGGGKGGKNH2 (Ac-MYYDITLALAGICQSARLVQQLAGGGKGGK-NH2) [IBW-002V2] | 80%
AcNLPPIVLAVIGICAAVFLLQQYVGGGKGGKNH2 (Ac-NLPPIVLAVIGICAAVFLLQQYVGGGKGGK-NH2) [IBW-003] | 37%
AcNYFIVNLALADLCMAAFNAAFNFGGGKGGKNH2 (Ac-NYFIVNLALADLCMAAFNAAFNFGGGKGGK-NH2) [IBW-004] | 63%
AcMRNLTRTSLLLAGLCTAAQMVFVGGGKGGKNh2 (Ac-MRNLTRTSLLLAGLCTAAQMVFVGGGKGGK-NH2) [IBW-005] | 51%
AcMYDITLALAGICQSARIVQQLAGGKGGKNH2 [IBW-002V3] | 77%
AcNYHDIVLALAGVCQSARLVHQLAGGKGGKNH2 [IBW-006] | 77%
AcNYFLVNLAFAEASMAAFNTVVNFGGKGGKNH2 (Ac-NYFLVNLAFAEASMAAFNTVVNFGGKGGK-NH2) [IBW-007] | 66%

test: Translocation of ^125I-labeled peptide from mouse intestine loop into blood and organs (Example 1); format: in vivo, BALB/c mice; details: similar experiments; injected into a mouse intestinal loop; fraction of the full conjugate IBW-002
Excerpt: The tested peptide, representing a penetrating peptide and a radio-labeled probe in a contiguous construct of SEQ ID NO 3 and SEQ ID NO 17, hereby named IBW 002 (Novetide, lot 40139-45, sequence: Ac-NYYDITLALAGICQSARLVQQLAGGGKGGK-NH2 (SEQ ID NO:22), was ^125I-labeled using the Bolton Hunter Reagent (Biochem. J. 133:529-39 (1973)). The labeled peptide was loaded on a Sephadex G10 column, washed with phosphate buffer and eluted with 3M Tiocyanate in DDW+50% n-butanol. The peak, containing 6 fractions, was kept and used for in vivo experiments.
Four male BALB/c mice, 9-10 weeks old, were deprived of food, 18 hours prior to the experiment.
The mice were anesthetized by i.p. injection of 0.05 ml of a mixture of 0.15 ml xylazine+0.85 ml of ketamin. A 2 cm long incision was made along the center of the abdomen, through the skin and abdominal wall. An intestine loop was gently pulled out through the incision and placed on wet gauze beside the animal. The loop remained intact through the entire procedure and was kept wet during the whole time. The tested compound was injected into the loop, 0.2 ml/ mouse, containing around 200,000 cpm, using a 26G needle. Fifteen minutes post injection the tip of the tail was cut and a 50 μl blood sample was drawn into a glass capillary. This was repeated 30 and 60 minutes post injection. The animals were subsequently sacrificed. The following organs were removed: epididymal fat, kidneys, liver, lungs and brain. Radioactivity in each organ and in blood samples was counted. A 5 μl sample of the injected solution was counted to determine the total injected cpm per mouse.
The total radioactive labeling injected per mouse was 224,160 cpm. Total cpm in the blood was calculated based on the 50 μl blood sample drawn out at different time points post injection, in the assumption that total blood volume of each mouse is 2 ml.

Substance | average amount recovered from the blood and various organs, relative to that obtained with IBW-002
GGKGGK (also: 125I label, site not given here) [SEQ ID NO:17, reference compound] | about ⅕

— patent publication US20050215478A1, “Amino acid sequences capable of facilitating penetration across a biological barrier” (priority 2002, published 2005)
